From patent US7993884B2, “Beta-xylosidase for conversion of plant cell wall carbohydrates to simple sugars” (The United States of America as represented by the …, priority 2006, dated 2011)
Values joined by “and” are separate entries in the source; they are usually repeats but may differ in a detail not shown here. Equal entries are not always repeated. Where two headings read alike, the source gives them in different places.

Columns and labels:
[1] = biological target: T1, Selenomonas ruminantium GA192 β-D-xylosidase (SXA), wild type, SEQ ID NO: 2 (Pseudoselenomonas ruminantium, UniProt O52575); assay: Steady-state kinetics of SXA with 4NPX2, A2 and X2-X6 by HPLC (Example 1)
SXA [2] = biological target: T2, SXA (Selenomonas ruminantium, UniProt O52575); details: for Km: 100 mM succinate-NaOH, pH 5.3, 25° C. (Example 1)
SXA [3] = biological target: T2, SXA; assay: SXA-catalyzed hydrolysis of 4NP-glycoside substrates, initial rates (Methods A and B); format: biochemical; details: for Relative Rate: 5 mM 4NP glycoside, 100 mM succinate-NaOH, pH 5.3, 25° C., Method A, initial rate relative to 4NPX;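 as to all read-outs here: initial rates from 4-nitrophenol release, tracked by absorbance over roughly 0.3 min and converted using product-minus-substrate extinction differences, in 1 mL mixtures started by enzyme addition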
[4] = biological target: T1, Selenomonas ruminantium GA192 β-D-xylosidase (SXA), wild type, SEQ ID NO: 2; assay: Steady-state kinetics of SXA with X2-X6, improved quenching, HPLC (Example 3); details: for factor by which kcat is higher than that of the Bacillus pumilus enzyme: SXA pH 5.3 vs B. pumilus pH 7.15, 25° C
SXA [5] = biological target: T2, SXA; details: for Km / kcat: 100 mM succinate-NaOH, improved quench (Example 3); for Km / kcat / kcat lower than previous determination (Example 1) / kcat/Km lower than previous determination (Example 1): pH 5.3, 25° C.; for factor by which kcat of SXA is higher than that of the Bacillus pumilus enzyme: SXA pH 5.3, 25° C. vs B. pumilus pH 7.15, 25° C.
[6] = 100 mM succinate-NaOH, pH 5.3, 25° C
[7] = pH 5.3, 25° C (improved technique), approximate
[8] = hydrolysis of X6, pH 5.30, 25° C.
[9] = pH 5.3, 25° C (Example 1), approximate

SMILES: OC[C@@H]1O[C@@H](OC[C@@H]2OC(O)[C@H](O)[C@H]2O)[C@H](O)[C@H]1O (stereo partly drawn) [A2, 1,5-α-L-arabinobiose]
- factor by which kcat is reduced vs X2 [1]: 5600 fold
- kcat [1, 6]: 0.074 ± 0.003 s⁻¹
- kcat factor between 4NPA and A2 ([1]; 4NPA larger / A2 reduced): 36 fold
- relative kcat value ([1]; pH 5.3, 25° C, A2 = 1): 1
- Km (SXA [2]): 1200 ± 100 µM
- factor by which kcat is reduced in comparison to 4NPA (SXA [2]; pH 5.3, 25° C.): 36
- factor by which kcat is reduced in comparison to X2 (SXA [2]; pH 5.3, 25° C.): 5600
- relative kcat values (SXA [2]; pH 5.3 and 25° C., relative to A2): 1

SMILES: C[C@@H]1O[C@@H](Oc2ccc([N+](=O)[O-])cc2)[C@@H](O)[C@H](O)[C@@H]1O [4-Nitrophenyl-α-L-fucopyranoside]
- Relative Rate (SXA [3]): <10^−6

SMILES: C[C@H]1O[C@@H](Oc2ccc([N+](=O)[O-])cc2)[C@H](O)[C@@H](O)[C@H]1O [4-Nitrophenyl-β-D-fucopyranoside]
- Relative Rate (SXA [3]): <10^−6

SMILES: OC1OC[C@@H](O[C@@H]2OC[C@@H](O[C@@H]3OC[C@@H](O[C@@H]4OC[C@@H](O[C@@H]5OC[C@@H](O[C@@H]6OC[C@@H](O)[C@H](O)[C@H]6O)[C@H](O)[C@H]5O)[C@H](O)[C@H]4O)[C@H](O)[C@H]3O)[C@H](O)[C@H]2O)[C@H](O)[C@H]1O (stereo partly drawn) [X6, 1,4-β-D-xylohexaose]
- kcat [4, 6]: 81.5 ± 2.0 s⁻¹
- factor by which kcat is higher than that of the Bacillus pumilus enzyme [4]: 27
- kcat [4, 7]: approximately 81.5 sec^−1
- kcat [1, 6]: 96 s⁻¹ and 96 ± 7 s⁻¹
- Km (SXA [2]): 2700 µM
- Km (SXA [5]): 3120 ± 210 µM
- kcat (SXA [5]): approximately 81.5 s^−1
- factor by which kcat of SXA is higher than that of the Bacillus pumilus enzyme (SXA [5]): 27
- kcat lower than previous determination (Example 1) (SXA [5]): 15%
- kcat/Km lower than previous determination (Example 1) (SXA [5]): 25%

SMILES: O=[N+]([O-])c1ccc(O[C@H]2OC[C@@H](O)[C@H](O)[C@H]2O)cc1 [4-Nitrophenyl-α-D-xylopyranoside]
- Relative Rate (SXA [3]): <10^−6

SMILES: O=[N+]([O-])c1ccc(O[C@@H]2O[C@H](CO)[C@H](O)[C@H](O)[C@H]2O)cc1 [4-Nitrophenyl-β-D-galactopyranoside]
- Relative Rate (SXA [3]): <10^−6

SMILES: OC1OC[C@@H](O[C@@H]2OC[C@@H](O[C@@H]3OC[C@@H](O)[C@H](O)[C@H]3O)[C@H](O)[C@H]2O)[C@H](O)[C@H]1O (stereo partly drawn) [X3, 1,4-β-D-xylotriose]
- kcat [4, 6]: 95.1 ± 1.5 s⁻¹
- factor by which kcat is higher than that of the Bacillus pumilus enzyme [4]: 32
- affinity of dianionic SXA (D14^−E186^−), lower than that of monoanionic SXA (D14^−E186^H) ([4]; from pH dependence of 1/Km): 3.1 fold and 3 fold
- kcat [4, 7]: approximately 95.1 sec^−1
- pH-independent kcat ([4]; pH profile, I=0.3 M, 25° C): 98.0±2.3
- kcat [1, 6]: 172 s⁻¹ and 172 ± 14 s⁻¹
- Km (SXA [2]): 3800 µM
- time of peak height of intermediate product, observed (SXA [2]; hydrolysis of X4, pH 5.30, 25° C.): 4130 s
- time of peak height of intermediate product, observed (SXA [2]; [8]): 10822 s
- pH-independent kcat (SXA [5]): 98.0±2.3
- Km (SXA [5]): 2120 ± 100 µM
- kcat (SXA [5]): approximately 95.1 s^−1
- pKa1 of kcat versus pH (SXA [5]; Eq. 6, I=0.3 M, 25° C.): 3.21
- pKa1 of kcat/Km versus pH (SXA [5]; Eq. 6, I=0.3 M, 25° C.): 4.80±0.06
- pKa2 of kcat versus pH (SXA [5]; Eq. 6, I=0.3 M, 25° C.): 7.53±0.06
- pKa2 of kcat/Km versus pH (SXA [5]; Eq. 6, I=0.3 M, 25° C.): 7.30±0.04
- pKa1 of kcat versus pH (SXA [5]; Eq. 6, I=0.3 M, 25° C., listed as 1,4-β-D-xylotriose): 3.21±0.27
- pKa1 of 1/Km versus pH (SXA [5]; Eq. 7, I=0.3 M, 25° C.): 4.76±0.05
- pKa2 of 1/Km versus pH (SXA [5]; Eq. 7, I=0.3 M, 25° C.): 7.76±0.14
- factor by which kcat of SXA is higher than that of the Bacillus pumilus enzyme (SXA [5]): 32
- lower affinity of dianionic SXA (D14^−E186^−) than monoanionic SXA (D14^−E186^H) (SXA [5]; from pH dependencies of 1/Km): 3.1 fold and 3 fold
- pH-independent kcat/Km (SXA [5]; kcat/Km versus pH, Eq. 6, I=0.3 M, 25° C. (FIG. 20)): 58.9±3.3 mM^−1s^−1
- kcat lower than previous determination (Example 1) (SXA [5]): 45%
- kcat/Km lower than previous determination (Example 1) (SXA [5]): 1%

SMILES: O=[N+]([O-])c1ccc(O[C@@H]2OC[C@H](O)[C@H](O)[C@H]2O)cc1 [4-Nitrophenyl-α-L-arabinopyranoside]
- Relative Rate (SXA [3]): <10^−6

SMILES: O=[N+]([O-])c1ccc(O[C@H]2O[C@H](CO)[C@@H](O)[C@H](O)[C@H]2O)cc1 [4-Nitrophenyl-α D-glucopyranoside]
- Relative Rate (SXA [3]): <10^−6

SMILES: C[C@@H]1O[C@@H](Oc2ccc([N+](=O)[O-])cc2)[C@H](O)[C@H](O)[C@H]1O [4-Nitrophenyl-α-L-rhamnopyranoside]
- Relative Rate (SXA [3]): <10^−6

SMILES: OC1OC[C@@H](O[C@@H]2OC[C@@H](O[C@@H]3OC[C@@H](O[C@@H]4OC[C@@H](O)[C@H](O)[C@H]4O)[C@H](O)[C@H]3O)[C@H](O)[C@H]2O)[C@H](O)[C@H]1O (stereo partly drawn) [X4, 1,4-β-D-xylotetraose]
- kcat [4, 6]: 91.6 ± 2.3 s⁻¹
- factor by which kcat is higher than that of the Bacillus pumilus enzyme [4]: 31
- kcat [4, 7]: approximately 91.6 sec^−1
- kcat [1, 6]: 150 s⁻¹ and 150 ± 5 s⁻¹
- kcat [1, 9]: approximately 150 sec^−1
- Km (SXA [2]): 4000 µM
- time of peak height of intermediate product, observed (SXA [2]; [8]): 8260 s
- Km (SXA [5]): 2750 ± 230 µM
- kcat (SXA [5]): approximately 91.6 s^−1
- factor by which kcat of SXA is higher than that of the Bacillus pumilus enzyme (SXA [5]): 31
- kcat lower than previous determination (Example 1) (SXA [5]): 39%
- kcat/Km lower than previous determination (Example 1) (SXA [5]): 12%

SMILES: O=[N+]([O-])c1ccc(O[C@H]2O[C@H](CO)[C@H](O)[C@H](O)[C@H]2O)cc1 [4-Nitrophenyl-α-D-galactopyranoside]
- Relative Rate (SXA [3]): <10^−6

SMILES: O=[N+]([O-])c1ccc(O[C@H]2OC[C@H](O)[C@H](O)[C@H]2O)cc1 [4-Nitrophenyl-β-L-arabinopyranoside]
- Relative Rate (SXA [3]): <10^−6
- rate relative to that of 4NPX, first inspection (SXA [3]; reaction conditions of Table 2, later attributed to a contaminant): less than 0.1%

SMILES: OC1OC[C@@H](O[C@@H]2OC[C@@H](O[C@@H]3OC[C@@H](O[C@@H]4OC[C@@H](O[C@@H]5OC[C@@H](O)[C@H](O)[C@H]5O)[C@H](O)[C@H]4O)[C@H](O)[C@H]3O)[C@H](O)[C@H]2O)[C@H](O)[C@H]1O (stereo partly drawn) [X5, 1,4-β-D-xylopentaose]
- kcat [4, 6]: 77.2 ± 3.6 s⁻¹
- factor by which kcat is higher than that of the Bacillus pumilus enzyme [4]: 20
- kcat [4, 7]: approximately 77.2 sec^−1
- kcat [1, 6]: 150 s⁻¹ and 150 ± 15 s⁻¹
- kcat [1, 9]: approximately 150 sec^−1
- Km (SXA [2]): 3700 µM
- time of peak height of intermediate product, observed (SXA [2]; [8]): 3138 s
- Km (SXA [5]): 2860 ± 380 µM
- kcat (SXA [5]): approximately 77.2 s^−1
- factor by which kcat of SXA is higher than that of the Bacillus pumilus enzyme (SXA [5]): 20
- kcat lower than previous determination (Example 1) (SXA [5]): 49%
- kcat/Km lower than previous determination (Example 1) (SXA [5]): 34%

SMILES: O=[N+]([O-])c1ccc(O[C@@H]2O[C@H](CO)[C@@H](O)[C@H](O)[C@H]2O)cc1 [4-Nitrophenyl-β-D-glucopyranoside]
- Relative Rate (SXA [3]): <10^−6

SMILES: O=[N+]([O-])c1ccc(O[C@@H]2O[C@H](CO)[C@@H](O)[C@H](O)[C@@H]2O)cc1 [4-Nitrophenyl-β-D-mannopyranoside]
- Relative Rate (SXA [3]): <10^−6

SMILES: C[C@@H]1O[C@H](Oc2ccc([N+](=O)[O-])cc2)[C@@H](O)[C@H](O)[C@@H]1O [4-Nitrophenyl-β-fucopyranoside]
- Relative Rate (SXA [3]): <10^−6

SMILES: O=[N+]([O-])c1ccc(O[C@H]2O[C@H](CO)[C@@H](O)[C@H](O)[C@@H]2O)cc1 [4-Nitrophenyl-α-D-mannopyranoside]
- Relative Rate (SXA [3]): <10^−6
